Laboratory results published in US20250057951A1, “DISCERNIBLE CELL SURFACE PROTEIN VARIANTS OF CD117 FOR USE IN CELL THERAPY” (UNIVERSITÄT BASEL, priority 2021, published 2025).
One block for each molecule: values may come before it.

How the values were obtained:
wild type TF-1 cells = experiment: Inhibition of SCF-dependent proliferation, wild type TF-1 cells; assay type: cell-based, human; conditions: 100 ng/ml SCF; increasing concentrations; 3 days
Description: (§1) SCF-dependent proliferation is another function of CD117. SCF-dependent proliferation was measured as follows: TF-1 cells were seeded at a cell concentration of 150 000 cells/ml in sterile, white cell culture treated plates in RPMI Media+10% FCS. Cells were treated with 100 ng/ml of SCF and a titration of various CD117 antibodies or an isotype control antibody at different concentrations. After 3 days of incubation a CellTiter-Glo 2.0 assay (Promega) was performed and luminescence was read in a luminometer (e.g. Envision or Phera Star plate readers).
(§2) Next, proliferation of the variants was tested with increasing concentrations of RefMab #1 at a constant concentration of SCF (100 ng/ml). TF-1 cells were seeded at a cell concentration of 150 000 cells/ml in sterile, white cell culture treated plates with transparent bottom in RPMI+GlutaMax+10% FCS and a fix concentration of 100 ng/ml SCF in the media, Cells were treated with different concentrations of RefMab #1. After 3 days of incubation a CellTiter-Glo 2,0 assay (Promega) was performed, luminescence was read in a luminometer (Envision plate reader).

[1] = tested on: TF-1 cells with knock-ins of CD117 variants; experiment: Inhibition of SCF-dependent proliferation, TF-1 cells with CD117 variant knock-in; assay type: cell-based, human; conditions: 100 ng/ml SCF; increasing concentrations; 3 days; E73K; all variants tested
Description: as §1
CD117 wild-type TF-1 cells were compared to TF1 cells with a E73K knock in. […] Both KI1 and KI2 were obtained upon sorting the edited TF1 cells using the SONY MA900, removing any wild-type and knock out cells from the final subsets, thus yielding high purity of knock in.
as §2

CD117 = experiment: Blocking of SCF-induced CD117 phosphorylation (Tyr719 ELISA), wild type TF-1 cells; assay type: cell-based, human; conditions: 0.5 ug/mL antibody or 500 nM avapritinib; 100 ng/ml SCF 5 minutes
Description: (§3) SCF-dependent phosphorylation is another function of CD117. SCF-dependent phosphorylation was measured using TF-1 cells expressing CD117 (as shown in previous experiments). TF-1 cells were seeded at a concentration of 1 million cells/ml in 1 ml of Medium (RPMI1640 supplemented with GlutaMAX+10% heat inactivated FBS) in a 6-well plate. Cells were treated with 0.5 ug/mL antibody or 500 nM avapratinib. Cells were then treated with 100 ng/ml recombinant human SCF (1 mg/ml PeproGMP® Recombinant Human SCF) for 5 minutes, before cell collection. Cells were washed with ice-cold PBS, before resuspending cells in 250 μL Lysis Buffer (Lysis buffer from Signaling containing Protease Inhibitor and Phosphatase Inhibitor). Cells were flash frozen in liquid nitrogen and thawed at 37° C. twice, before freezing them at −80° C. until further usage. Undiluted samples were thawed and processed according to the manufacturers protocol for the PathScan® Phospho-c-Kit (Tyr719) Sandwich ELISA Kit (Cell Signaling). Absorbance (OD_450 nm) was assessed using the Envision (Perkin Elmer).
(§4) TF-1 cells (wild type, and variants E73K, E73Y, D121K, S123F and S123K of CD117) were seeded at a concentration of 1 million cells/mL in 2 ml of Medium (RPMI1640 supplemented with GlutaMAX+10% heat inactivated FBS) in a 6-well plate. Cells were pre-treated with 0.5 μg/ml of antibodies Refmab #1-Ernie or Refmab #1-Bert for 30 minutes, before adding 100 ng/ml recombinant human SCF (1 mg/mL PeproGMP® Recombinant Human SCF) for 5 minutes. Cells were collected, washed once with ice-cold PBS and resuspended in 500 μL Lysis Buffer (Lysis buffer from Signaling containing Protease Inhibitor and Phosphatase Inhibitor). Cells were then flash frozen in liquid nitrogen and thawed at 37° C. twice, before freezing them at −80° C. until further usage. Undiluted samples were thawed and processed according to the manufacturers protocol for the PathScan Phospho-c-Kit (Tyr719) Sandwich ELISA Kit (Cell Signaling) or the Human c-Kit (CD117) ELISA Kit (Abcam). Absorbance (OD_450 nm) was assessed using the Envision (Perkin Elmer).

variants of CD117 = experiment: Blocking of SCF-induced CD117 phosphorylation (Tyr719 ELISA), TF-1 cells with CD117 variants; assay type: cell-based, human; conditions: 0.5 ug/mL antibody or 500 nM avapritinib; 100 ng/ml SCF 5 minutes
Description: as §3, §4

TF-1 cells [2] = experiment: SCF-dependent proliferation, SCF titration on TF-1 cells with CD117 variants (CellTiter-Glo); assay type: cell-based, human; conditions: for EC50 Average: average of two experiments; for EC50 Experiment #1 / EC50 Experiment #2: titration of SCF, 3 days, TF-1 cells with the CD117 variant
Description: In another experiment, SCF-dependent proliferation of variants E73K, E73Y, D121K, S123F and S123K was compared against wildtype CD117. TF-1 cells were seeded at a cell concentration of 150 000 cells/ml in sterile, white cell culture treated plates with transparent bottom in RPMI+GlutaMax+10% FCS. Cells were treated with a titration of SCF. After 3 days of incubation a CellTiter-Glo 2.0 assay (Promega) was performed, luminescence was read in a luminometer (Envision plate reader) and EC50's was determined. Two different experiments with triplicates in each experiment were performed.

Refmab #1 = Refmab #1 titration on engineered TF-1 cells (flow cytometry); assay type: binding; conditions: 5-0.00015 μg/mL antibody; 4° C.
Chain of Refmab #1 (as listed by the source): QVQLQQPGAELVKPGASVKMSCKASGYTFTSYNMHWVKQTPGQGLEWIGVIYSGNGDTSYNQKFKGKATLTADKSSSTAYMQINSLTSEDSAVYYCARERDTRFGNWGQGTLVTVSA
Chain of Refmab #1 (as listed by the source): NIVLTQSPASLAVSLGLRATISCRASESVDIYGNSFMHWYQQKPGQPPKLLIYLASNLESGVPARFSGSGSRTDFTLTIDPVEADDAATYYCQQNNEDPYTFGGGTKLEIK
Description: Binding of Refmab #1 was assessed in a flow cytometry assay. TF-1 cells were seeded at a cell concentration of 1,000,000 cells/ml in FACS Buffer (PBS+2% FCS+1 mM EDTA). After a Fc blocking using 1:20 diluted TruStain (BioLegend, #422302) in FACS buffer for 15 minutes at 4° C., cells were washed twice with FACS buffer. Subsequently, a SR-1 titration was added to the cells using 5-0.00015 μg/mL antibody for 30 minutes at 4° C. on a plate shaker. Cells were washed twice with FACS buffer and a secondary labelled antibody (IgG (H+L) Cross-Adsorbed Goat anti-Human, Alexa Fluor® 488, Invitrogen, A11013) was added to the cells for 30 minutes at 4° C. on a plate shaker. Cells were washed twice with FACS buffer, before adding 1:100 diluted solution of 7AAD staining (cell viability) in FACS buffer for a couple of minutes and analyzing the cells using the Novocyte Quanteon (Agilent).

antibody Refmab #1 [3] = experiment: Octet screen: binding of CD117 D1-2-3 variants to captured Refmab #1; conditions: nm shift at end of association, top analyte concentration (500 nM)
Outline: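 Refmab #1 captured on anti-human Fc biosensors; human CD117 D1-2-3 wt or variants flowed as analyte at 500, 50 and 5 nM, 25° C., 300 s association/900 s dissociation, buffer-referenced. Binding level at top concentration, end of association, expressed as percent of wild type; 1:1 fits where possible.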

TF-1 cells [4] = experiment: SCF-dependent phosphorylation of CD117 variants in TF-1 cells (Tyr719 ELISA); assay type: cell-based, human; conditions: 1-20 ng/ml SCF for 5 minutes
Description: TF-1 cells (wild type, knock out, and variants E73K, D121K and S123K of CD117) were seeded at a concentration of 1 million cells/ml in 2 ml of Medium (RPMI1640 supplemented with GlutaMAX+10% heat inactivated FBS) in a 6-well plate. Cells were treated with 1-20 ng/ml recombinant human SCF (1 mg/ml PeproGMP Recombinant Human SCF) for 5 minutes, before cell collection. Cells were washed with ice-cold PBS, before resuspending cells in 500 μL Lysis Buffer (Lysis buffer from Signaling containing Protease Inhibitor and Phosphatase Inhibitor). Cells were flash frozen in liquid nitrogen and thawed at 37° C. twice, before freezing them at −80° C. until further usage. Undiluted samples were thawed and processed according to the manufacturers protocol for the PathScan Phospho-c-Kit (Tyr719) Sandwich ELISA Kit (Cell Signaling). Absorbance (OD_450 nm) was assessed using the Envision (Perkin Elmer).

antibody Refmab #1 [5] = experiment: Octet titration, steady state KD of CD117 D1-2-3 variants to Refmab #1; assay type: binding; conditions: nm shift higher than 0.1 nm counts as binding
Description: To further characterize binding of Refmab #1 to CD117 D1-2-3 variants E73K, E73L, E73R, E73Y, D121H, D121K, S123K and S123F, the analytes were titrated at 7 different concentrations (from 2000 nM to 5 nM). Antibody Refmab #1 was captured by AHC biosensors for 300 s at 0.5 to 1 μg/mL. Association and dissociation to Refmab #1 was extended to 600 s and 1000 s, respectively. Steady state analysis was performed.

human wild-type CD117 [6] = molecular target: T1, human wild-type CD117 (human, UniProt P10721 26-976); experiment: flow cytometry, HEK-293T with wt CD117 vs vector alone, IgG at 0.125 µg/mL
T1 construct: also called wt CD117; KIT
Description: Binding of the antibodies to the transfected cells and the optimal assay conditions were evaluated in 384-well format. Detection of cellular expression was measured via high-throughput flow cytometry. Serial dilutions of each antibody were tested for immunoreactivity against cells expressing CD117 or vector alone. The optimal screening concentration for each antibody was determined based on the raw signal values and signal-to-background calculations. Each point represents the mean of four replicates.

human wild-type CD117 [7] = molecular target: T1, human wild-type CD117; experiment: flow cytometry, HEK-293T with wt CD117 vs vector alone, Fab at 1.00 µg/mL

Molecule: Cn1cc(-c2cc3c(N4CCN(c5ncc([C@@](C)(N)c6ccc(F)cc6)cn5)CC4)ncnn3c2)cn1 [avapritinib, reference compound]
effect on SCF-dependent proliferation of wild type TF-1 cells (wild type TF-1 cells): no proliferation
effect on SCF-dependent proliferation of TF-1 cells with CD117 variants [1]: no proliferation
blocking of SCF-induced phosphorylation, wild type cells (CD117): blocked
blocking of SCF-induced phosphorylation, E73K variant (variants of CD117): still blocks

B2: Refmab #5 Fab fragment (Fab, V domains shown)
VH: EVRLVESEGGLVQPRSSMKLSCTASGFTFSDYYMAWVRQVPEKGLEWVANINYDGSSTYYLDSLKSRFIISRDNAKNILYLQMSSLKSEDTATYYCARGDYYGTTYWYFDVWGTGTTVTVSS
VL: DIQMTQTTSSLSASLGDRVTISCRASQDISNYLNWYQQKPDGTVKLLIYYTSRLQSGVPSRFSGSGSGTDYSLTISNLEQEDIATYFCQQGKKLWSFGGGTKLEIKR
Signal:Background (human wild-type CD117 [7]): 7 ratio to background

B4: Refmab #4 Fab fragment (Fab, V domains shown)
VH: EVQLVESGGGLVQPGGSLRLSCAASGFSISVYMMHWVRQAPGKGLEWVASIYPYSGYTYYADSVKGRFTISADTSKNTAYLQMNSLRAEDTAVYYCARYVYHALDYWGQGTLVTVSS
VL: DIQMTQSPSSLSASVGDRVTITCRASQSVSSAVAWYQQKPGKAPKLLIYSASSLYSGVPSRFSGSRSGTDFTLTISSLQPEDFATYYCQQWAVHSLITFGQGTKVEIKR
Signal:Background (human wild-type CD117 [7]): 6 ratio to background

Further lines, with some results ahead:

binding to Refmab #1 compared to wild type (antibody Refmab #1 [3]): particular strong decrease in binding
binding of Refmab #1 at 2000 nM variant (antibody Refmab #1 [5]): No binding
Molecule: D121K: variant of human CD117 with substitution D121K
EC50 Average (TF-1 cells [2]): 3.70 ± 0.45 ng/mL
EC50 Experiment #1 (TF-1 cells [2]): 4.15 ng/mL
EC50 Experiment #2 (TF-1 cells [2]): 3.25 ng/mL
Binding of Refmab #1 to TF-1 cells expressing the CD117 variant (Refmab #1): completely abolished
SCF-dependent phosphorylation at position Tyr719 of CD117 (TF-1 cells [4]): showed a SCF-dependent phosphorylation

binding to Refmab #1 compared to wild type (antibody Refmab #1 [3]): particular strong decrease in binding
binding of Refmab #1 at 2000 nM variant (antibody Refmab #1 [5]): No binding
Molecule: S123K: variant of human CD117 with substitution S123K
EC50 Average (TF-1 cells [2]): 3.54 ± 0.23 ng/mL
EC50 Experiment #1 (TF-1 cells [2]): 3.76 ng/mL
EC50 Experiment #2 (TF-1 cells [2]): 3.31 ng/mL
Binding of Refmab #1 to TF-1 cells expressing the CD117 variant (Refmab #1): completely abolished
SCF-dependent phosphorylation at position Tyr719 of CD117 (TF-1 cells [4]): showed a SCF-dependent phosphorylation

Signal:Background (human wild-type CD117 [6]): 10 ratio to background
B1: Refmab #5 (antibody, V domains shown)
VH: EVRLVESEGGLVQPRSSMKLSCTASGFTFSDYYMAWVRQVPEKGLEWVANINYDGSSTYYLDSLKSRFIISRDNAKNILYLQMSSLKSEDTATYYCARGDYYGTTYWYFDVWGTGTTVTVSS
VL: DIQMTQTTSSLSASLGDRVTISCRASQDISNYLNWYQQKPDGTVKLLIYYTSRLQSGVPSRFSGSGSGTDYSLTISNLEQEDIATYFCQQGKKLWSFGGGTKLEIKR

Signal:Background (human wild-type CD117 [6]): 7 ratio to background
B3: Refmab #4 (antibody, V domains shown)
VH: EVQLVESGGGLVQPGGSLRLSCAASGFSISVYMMHWVRQAPGKGLEWVASIYPYSGYTYYADSVKGRFTISADTSKNTAYLQMNSLRAEDTAVYYCARYVYHALDYWGQGTLVTVSS
VL: DIQMTQSPSSLSASVGDRVTITCRASQSVSSAVAWYQQKPGKAPKLLIYSASSLYSGVPSRFSGSRSGTDFTLTISSLQPEDFATYYCQQWAVHSLITFGQGTKVEIKR
